The test system of assay [1] is A549. Briefly: cells. Type of assay: functional, cell-based. The following applies: Homo sapiens, A549, 72 h.
Description: Antiproliferative activity against human A549 cells assessed as inhibition of cell proliferation measured after 72 hrs by CCK8 assay
Assay [2] relates to SH-SY5Y. Briefly: cells. To be noted: Homo sapiens, 72 h. Type of assay: functional, cell-based.
Description: Antiproliferative activity against human SH-SY5Y cells harboring ALK F1174L mutant assessed as inhibition of cell proliferation measured after 72 hrs by CCK8 assay
The target in assay [3] is T1, Histone deacetylase 1 (Homo sapiens, UniProt Q13547). The following applies: Sf9, dose 10.0 nM, time 15.0 min.
In assay [4] the target is T1, Histone deacetylase 1. The following applies: Sf9, dose 100.0 nM, time 15.0 min.
Assay [5] concerns the target T2, ALK tyrosine kinase receptor (Homo sapiens, UniProt Q9UM73). Briefly: Inhibition of ALK (unknown origin) at 10 nM preincubated for 10 mins followed by addition of substrate and ATP for 25 mins by caliper EZ reader method. To be noted: time 35.0 min.
Target sequence in this assay (Q9UM73 19-1620 limits assumed): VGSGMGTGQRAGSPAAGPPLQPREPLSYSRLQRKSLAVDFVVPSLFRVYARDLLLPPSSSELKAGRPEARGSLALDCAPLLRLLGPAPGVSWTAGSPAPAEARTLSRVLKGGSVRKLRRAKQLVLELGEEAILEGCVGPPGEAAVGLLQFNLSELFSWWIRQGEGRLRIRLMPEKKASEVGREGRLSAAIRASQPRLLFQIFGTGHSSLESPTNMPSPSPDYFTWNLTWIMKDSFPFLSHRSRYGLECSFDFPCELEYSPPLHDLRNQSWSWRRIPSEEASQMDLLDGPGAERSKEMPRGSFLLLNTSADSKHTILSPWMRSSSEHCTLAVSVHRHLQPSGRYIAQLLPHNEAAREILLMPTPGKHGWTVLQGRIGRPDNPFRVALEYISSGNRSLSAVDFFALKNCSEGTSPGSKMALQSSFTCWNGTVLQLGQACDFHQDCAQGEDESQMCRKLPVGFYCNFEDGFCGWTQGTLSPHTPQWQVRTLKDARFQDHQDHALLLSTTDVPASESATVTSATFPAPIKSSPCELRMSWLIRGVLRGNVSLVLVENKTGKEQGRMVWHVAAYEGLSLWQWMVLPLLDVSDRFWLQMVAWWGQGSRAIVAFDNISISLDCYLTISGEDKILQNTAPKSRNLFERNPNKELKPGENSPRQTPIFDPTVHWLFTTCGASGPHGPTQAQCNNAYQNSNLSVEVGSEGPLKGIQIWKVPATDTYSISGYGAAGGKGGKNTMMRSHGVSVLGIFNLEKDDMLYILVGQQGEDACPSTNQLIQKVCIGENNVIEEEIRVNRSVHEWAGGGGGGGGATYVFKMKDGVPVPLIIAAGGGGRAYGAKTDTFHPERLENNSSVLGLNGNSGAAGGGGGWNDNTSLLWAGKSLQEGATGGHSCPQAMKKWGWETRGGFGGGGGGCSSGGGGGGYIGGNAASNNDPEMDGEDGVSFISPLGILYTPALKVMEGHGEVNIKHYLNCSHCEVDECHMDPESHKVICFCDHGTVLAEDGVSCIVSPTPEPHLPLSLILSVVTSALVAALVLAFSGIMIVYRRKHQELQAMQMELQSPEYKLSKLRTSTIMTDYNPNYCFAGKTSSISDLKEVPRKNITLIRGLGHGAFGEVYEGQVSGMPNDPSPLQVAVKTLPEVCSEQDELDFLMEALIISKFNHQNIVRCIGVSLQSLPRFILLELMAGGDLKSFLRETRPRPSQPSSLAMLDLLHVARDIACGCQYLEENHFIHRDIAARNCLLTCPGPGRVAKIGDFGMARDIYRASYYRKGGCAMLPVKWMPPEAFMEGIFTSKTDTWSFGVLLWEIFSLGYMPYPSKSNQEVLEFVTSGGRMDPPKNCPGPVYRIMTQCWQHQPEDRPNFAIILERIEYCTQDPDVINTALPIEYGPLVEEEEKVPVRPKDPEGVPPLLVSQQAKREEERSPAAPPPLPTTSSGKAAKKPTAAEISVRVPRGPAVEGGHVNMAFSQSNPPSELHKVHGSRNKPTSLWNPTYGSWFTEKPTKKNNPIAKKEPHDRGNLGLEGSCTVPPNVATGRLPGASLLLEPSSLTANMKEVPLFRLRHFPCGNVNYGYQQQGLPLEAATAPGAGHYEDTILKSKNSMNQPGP
Assay [6] concerns the target T2, ALK tyrosine kinase receptor. The experiment in a line: Inhibition of ALK (unknown origin) at 100 nM preincubated for 10 mins followed by addition of substrate and ATP for 25 mins by caliper EZ reader method. To be noted: time 35.0 min.
Target sequence in this assay (Q9UM73 19-1620 limits assumed): as above
A further assay deals with Histone deacetylase 2 (Homo sapiens, UniProt Q92769).
Histone deacetylase 2, sequence (Q92769 whole entry): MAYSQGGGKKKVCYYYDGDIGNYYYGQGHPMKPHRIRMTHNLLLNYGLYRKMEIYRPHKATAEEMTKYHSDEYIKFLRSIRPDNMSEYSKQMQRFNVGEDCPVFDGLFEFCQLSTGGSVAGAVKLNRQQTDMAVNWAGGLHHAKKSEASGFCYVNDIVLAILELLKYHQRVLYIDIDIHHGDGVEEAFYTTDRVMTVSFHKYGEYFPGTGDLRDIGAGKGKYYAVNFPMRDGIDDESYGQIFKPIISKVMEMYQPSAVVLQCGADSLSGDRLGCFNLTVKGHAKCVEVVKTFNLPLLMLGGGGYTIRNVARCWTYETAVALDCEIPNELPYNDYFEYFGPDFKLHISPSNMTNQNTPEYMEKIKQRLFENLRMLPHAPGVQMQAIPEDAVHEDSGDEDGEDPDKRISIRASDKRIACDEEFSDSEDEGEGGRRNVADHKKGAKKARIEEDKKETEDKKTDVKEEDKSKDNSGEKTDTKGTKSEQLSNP
Assay [7] concerns the target T2, ALK tyrosine kinase receptor.
Target sequence in this assay (Q9UM73 whole entry): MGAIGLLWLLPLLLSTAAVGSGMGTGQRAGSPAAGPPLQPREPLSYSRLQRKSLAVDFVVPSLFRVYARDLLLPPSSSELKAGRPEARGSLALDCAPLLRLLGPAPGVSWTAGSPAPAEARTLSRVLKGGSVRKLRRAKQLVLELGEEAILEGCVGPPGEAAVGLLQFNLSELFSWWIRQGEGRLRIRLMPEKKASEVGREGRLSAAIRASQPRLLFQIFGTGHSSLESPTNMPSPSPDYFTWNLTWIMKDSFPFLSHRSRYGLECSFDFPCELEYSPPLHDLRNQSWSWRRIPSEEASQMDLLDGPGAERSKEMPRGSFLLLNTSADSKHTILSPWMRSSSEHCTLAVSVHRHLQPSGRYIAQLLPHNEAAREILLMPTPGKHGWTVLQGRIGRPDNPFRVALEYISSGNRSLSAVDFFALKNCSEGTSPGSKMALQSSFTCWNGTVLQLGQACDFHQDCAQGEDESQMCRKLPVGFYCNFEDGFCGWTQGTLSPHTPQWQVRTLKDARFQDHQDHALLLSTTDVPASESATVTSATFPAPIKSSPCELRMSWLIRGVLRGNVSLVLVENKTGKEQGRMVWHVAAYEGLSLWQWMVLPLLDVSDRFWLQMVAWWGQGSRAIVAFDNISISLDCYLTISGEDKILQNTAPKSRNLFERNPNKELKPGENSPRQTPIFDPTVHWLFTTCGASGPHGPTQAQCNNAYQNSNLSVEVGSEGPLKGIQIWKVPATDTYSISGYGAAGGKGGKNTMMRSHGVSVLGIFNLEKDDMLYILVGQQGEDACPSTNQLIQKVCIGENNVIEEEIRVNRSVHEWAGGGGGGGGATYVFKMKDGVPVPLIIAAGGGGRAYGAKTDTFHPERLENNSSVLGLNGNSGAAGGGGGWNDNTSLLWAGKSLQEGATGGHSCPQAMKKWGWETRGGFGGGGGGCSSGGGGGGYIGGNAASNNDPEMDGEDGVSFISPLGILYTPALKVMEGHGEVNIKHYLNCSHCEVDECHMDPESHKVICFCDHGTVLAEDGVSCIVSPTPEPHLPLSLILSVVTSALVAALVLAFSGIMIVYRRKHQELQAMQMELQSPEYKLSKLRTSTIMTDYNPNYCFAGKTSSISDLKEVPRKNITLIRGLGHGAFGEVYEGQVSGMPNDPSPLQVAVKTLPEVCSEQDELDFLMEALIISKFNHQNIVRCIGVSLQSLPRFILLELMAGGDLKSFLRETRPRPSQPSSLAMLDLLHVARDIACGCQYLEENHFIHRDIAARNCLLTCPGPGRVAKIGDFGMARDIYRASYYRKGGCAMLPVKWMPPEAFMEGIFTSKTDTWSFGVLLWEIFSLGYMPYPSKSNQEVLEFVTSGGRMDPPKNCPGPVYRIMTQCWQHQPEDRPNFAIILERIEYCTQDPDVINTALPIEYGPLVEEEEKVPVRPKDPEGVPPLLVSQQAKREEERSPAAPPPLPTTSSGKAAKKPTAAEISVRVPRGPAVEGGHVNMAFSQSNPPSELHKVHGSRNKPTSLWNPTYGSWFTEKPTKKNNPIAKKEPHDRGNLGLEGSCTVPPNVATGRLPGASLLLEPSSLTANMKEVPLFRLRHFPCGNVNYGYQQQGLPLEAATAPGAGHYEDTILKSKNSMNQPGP
Description: Inhibition of ALK (unknown origin) preincubated for 10 mins followed by addition of substrate and ATP for 25 mins by caliper EZ reader method
For assay [8], the target named is ALK tyrosine kinase receptor (Homo sapiens, UniProt Q9UM73, L1196M).
ALK tyrosine kinase receptor (Homo sapiens, UniProt Q9UM73, L1196M), sequence (Q9UM73 19-1620 L1196M limits assumed): as the sequence (Q9UM73 19-1620 limits assumed) above, with L1178M counted along it
In assay [9] the target is ALK tyrosine kinase receptor (Homo sapiens, UniProt Q9UM73, G1202R).
ALK tyrosine kinase receptor (Homo sapiens, UniProt Q9UM73, G1202R), sequence (Q9UM73 19-1620 G1202R limits assumed): as the sequence (Q9UM73 19-1620 limits assumed) above, with G1184R counted along it
Assay [10] deals with HepG2. Briefly: cells. The assay is classed as functional, cell-based. The following applies: Homo sapiens, HepG2, 72 h.
Description: Antiproliferative activity against human HepG2 cells assessed as inhibition of cell proliferation measured after 72 hrs by CCK8 assay
Another assay is described as follows: cells. The assay is classed as functional, cell-based. To be noted: Homo sapiens, SKNBE2, 72 h.
The test system of assay [11] is NCI-H2228. The experiment in a line: cells. To be noted: Homo sapiens, NCI-H2228, 72 h. Type of assay: functional, cell-based.
For assay [12], the system named is MDA-MB-231. The experiment in a line: cells. Type of assay: functional, cell-based. To be noted: Homo sapiens, MDA-MB-231, 72 h.
Description: Antiproliferative activity against human MDA-MB-231 cells assessed as inhibition of cell proliferation measured after 72 hrs by CCK8 assay
Assay [13] relates to HepG2. The experiment in a line: Potency index, ratio of ceritinib IC50 to test compound IC50 for human HepG2 cells assessed as inhibition of cell proliferation measured after 72 hrs by CCK8 assay. The assay is classed as functional.
Assay [14] concerns HepG2. Briefly: Potency index, ratio of crizotinib IC50 to test compound IC50 for human HepG2 cells assessed as inhibition of cell proliferation measured after 72 hrs by CCK8 assay. The assay is classed as functional.
In assay [15] the test system is A549. The experiment in a line: Potency index, ratio of ceritinib IC50 to test compound IC50 for human A549 cells assessed as inhibition of cell proliferation measured after 72 hrs by CCK8 assay. The assay is classed as functional.
Assay [16] deals with A549. The experiment in a line: Potency index, ratio of crizotinib IC50 to test compound IC50 for human A549 cells assessed as inhibition of cell proliferation measured after 72 hrs by CCK8 assay. The assay is classed as functional.
Assay [17] is described as follows: Potency index, ratio of ceritinib IC50 to test compound IC50 for human SKNBE2 cells harboring wild type ALK assessed as inhibition of cell proliferation measured after 72 hrs by CCK8 assay. The assay is classed as functional.
Assay [18] is described as follows: Potency index, ratio of crizotinib IC50 to test compound IC50 for human SKNBE2 cells harboring wild type ALK assessed as inhibition of cell proliferation measured after 72 hrs by CCK8 assay. Type of assay: functional.
Assay [19] concerns SH-SY5Y. The experiment in a line: Potency index, ratio of ceritinib IC50 to test compound IC50 for human SH-SY5Y cells harboring ALK F1174L mutant assessed as inhibition of cell proliferation measured after 72 hrs by CCK8 assay. Type of assay: functional.
Assay [20] deals with SH-SY5Y. Briefly: Potency index, ratio of crizotinib IC50 to test compound IC50 for human SH-SY5Y cells harboring ALK F1174L mutant assessed as inhibition of cell proliferation measured after 72 hrs by CCK8 assay. The assay is classed as functional.
Assay [21] deals with NCI-H2228. Briefly: Potency index, ratio of ceritinib IC50 to test compound IC50 for human NCI-H2228 cells harboring EML4/ALK […] assessed as inhibition of cell proliferation measured after 72 hrs by CCK8 assay. Type of assay: functional.
The subject of assay [22] is NCI-H2228. Briefly: Potency index, ratio of crizotinib IC50 to test compound IC50 for human NCI-H2228 cells harboring EML4/ALK […] assessed as inhibition of cell proliferation measured after 72 hrs by CCK8 assay. The assay is classed as functional.
For assay [23], the system named is MDA-MB-231. The experiment in a line: Potency index, ratio of ceritinib IC50 to test compound IC50 for human MDA-MB-231 cells assessed as inhibition of cell proliferation measured after 72 hrs by CCK8 assay. Type of assay: functional.
The test system of assay [24] is MDA-MB-231. The experiment in a line: Potency index, ratio of crizotinib IC50 to test compound IC50 for human MDA-MB-231 cells assessed as inhibition of cell proliferation measured after 72 hrs by CCK8 assay. Type of assay: functional.
Assay [25] deals with T3, Protein deacetylase HDAC6 (Homo sapiens, UniProt Q9UBN7).
T3 sequence (Q9UBN7 whole entry): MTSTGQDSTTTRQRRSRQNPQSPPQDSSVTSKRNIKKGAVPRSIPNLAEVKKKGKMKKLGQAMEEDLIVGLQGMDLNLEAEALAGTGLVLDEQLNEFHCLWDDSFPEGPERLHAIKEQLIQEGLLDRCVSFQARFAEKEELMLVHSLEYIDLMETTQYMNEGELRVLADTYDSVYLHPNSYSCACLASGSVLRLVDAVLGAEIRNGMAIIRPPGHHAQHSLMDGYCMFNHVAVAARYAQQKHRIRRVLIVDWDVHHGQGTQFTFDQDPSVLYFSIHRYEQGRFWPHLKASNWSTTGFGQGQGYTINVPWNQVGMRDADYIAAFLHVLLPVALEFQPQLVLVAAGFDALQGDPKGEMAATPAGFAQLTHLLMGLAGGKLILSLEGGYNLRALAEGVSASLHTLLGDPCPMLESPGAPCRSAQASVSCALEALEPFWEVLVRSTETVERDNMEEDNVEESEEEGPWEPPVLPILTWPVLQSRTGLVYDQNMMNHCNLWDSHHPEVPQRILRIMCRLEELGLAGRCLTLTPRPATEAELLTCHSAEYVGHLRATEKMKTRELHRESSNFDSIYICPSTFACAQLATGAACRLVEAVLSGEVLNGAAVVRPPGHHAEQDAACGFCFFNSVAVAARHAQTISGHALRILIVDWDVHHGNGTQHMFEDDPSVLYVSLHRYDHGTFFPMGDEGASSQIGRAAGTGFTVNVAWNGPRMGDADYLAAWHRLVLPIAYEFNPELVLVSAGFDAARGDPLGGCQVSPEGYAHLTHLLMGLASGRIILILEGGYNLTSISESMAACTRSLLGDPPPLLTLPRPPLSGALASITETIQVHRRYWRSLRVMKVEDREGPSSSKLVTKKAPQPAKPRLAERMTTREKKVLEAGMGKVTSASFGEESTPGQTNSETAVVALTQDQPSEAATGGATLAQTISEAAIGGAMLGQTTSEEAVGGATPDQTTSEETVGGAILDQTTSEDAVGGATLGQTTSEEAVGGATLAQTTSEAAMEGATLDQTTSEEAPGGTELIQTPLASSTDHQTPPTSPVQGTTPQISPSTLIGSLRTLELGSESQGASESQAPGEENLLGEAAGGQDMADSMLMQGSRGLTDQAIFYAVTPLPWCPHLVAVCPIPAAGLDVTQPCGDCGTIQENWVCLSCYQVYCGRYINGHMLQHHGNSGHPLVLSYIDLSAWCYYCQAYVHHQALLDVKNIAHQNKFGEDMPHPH
Description: Inhibition of HDAC6 (unknown origin)

The target of assay [26] is T1, Histone deacetylase 1. The experiment in a line: biochemical.
Description: Inhibition of recombinant human C-terminal His/FLAG-tagged HDAC1 (1 to 482 residues) expressed in Sf9 insect cells using Ac-peptide-AMC as substrate preincubated for 15 mins followed by addition of substrate and trypsin measured by flourescence assay
The subject of assay [27] is MDA-MB-231. The experiment in a line: Induction of apoptosis in human MDA-MB-231 cells assessed as viable cells at 1 uM measured after 24 hrs by Annexin V-FITC/PI staining based flowcytometry (reference value: 93.14%). The assay is classed as functional. To be noted: read-out: Activity.
The subject of assay [28] is MDA-MB-231. Briefly: Induction of apoptosis in human MDA-MB-231 cells assessed as early apoptotic cells at 1 uM measured after 24 hrs by Annexin V-FITC/PI staining based flowcytometry ( Rvb = […]%). Type of assay: functional.
Assay [29] has as its system MDA-MB-231. The experiment in a line: Induction of apoptosis in human MDA-MB-231 cells assessed as late apoptotic cells at 1 uM measured after 24 hrs by Annexin V-FITC/PI staining based flowcytometry ( Rvb = 5.28%). The assay is classed as functional.
In assay [30] the test system is MDA-MB-231. Briefly: Induction of apoptosis in human MDA-MB-231 cells assessed as necrotic cells at 1 uM measured after 24 hrs by Annexin V-FITC/PI staining based flowcytometry (reference value: 0.94%). Type of assay: functional.
In assay [31] the test system is SH-SY5Y. Briefly: Induction of apoptosis in human SH-SY5Y cells assessed as viable cells at 1 uM measured after 24 hrs by Annexin V-FITC/PI staining based flowcytometry (reference value: 77.05%). To be noted: read-out: Activity. Type of assay: functional.
Assay [32] relates to SH-SY5Y. Briefly: Induction of apoptosis in human SH-SY5Y cells assessed as early apoptotic cells at 1 uM measured after 24 hrs by Annexin V-FITC/PI staining based flowcytometry (reference value: 0.82%). The assay is classed as functional.
Assay [33] has as its system SH-SY5Y. The experiment in a line: Induction of apoptosis in human SH-SY5Y cells assessed as late apoptotic cells at 1 uM measured after 24 hrs by Annexin V-FITC/PI staining based flowcytometry (reference value: 14.32%). The assay is classed as functional.
Assay [34] deals with SH-SY5Y. Briefly: Induction of apoptosis in human SH-SY5Y cells assessed as necrotic cells at 1 uM measured after 24 hrs by Annexin V-FITC/PI staining based flowcytometry (reference value: 7.81%). Type of assay: functional.

Molecules are shown by their SMILES. pIC50: −log10 of the molar value.

T1 sequence (Q13547 whole entry): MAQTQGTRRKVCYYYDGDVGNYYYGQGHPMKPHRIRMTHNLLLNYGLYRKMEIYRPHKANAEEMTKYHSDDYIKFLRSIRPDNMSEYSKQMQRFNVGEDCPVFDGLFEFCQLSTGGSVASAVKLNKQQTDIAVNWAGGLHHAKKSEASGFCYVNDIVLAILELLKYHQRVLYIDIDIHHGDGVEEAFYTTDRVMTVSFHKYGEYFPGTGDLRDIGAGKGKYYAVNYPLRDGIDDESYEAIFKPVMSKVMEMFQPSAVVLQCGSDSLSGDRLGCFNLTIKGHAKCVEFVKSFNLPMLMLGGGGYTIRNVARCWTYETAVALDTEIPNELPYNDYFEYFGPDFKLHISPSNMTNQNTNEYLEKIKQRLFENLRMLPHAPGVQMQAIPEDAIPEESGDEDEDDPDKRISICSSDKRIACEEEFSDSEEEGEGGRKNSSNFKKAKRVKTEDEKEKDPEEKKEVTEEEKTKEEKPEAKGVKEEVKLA
Description for Histone deacetylase 2: Inhibition of HDAC2 (unknown origin)

For the compound `CC(C)S(=O)(=O)c1ccccc1Nc1nc(Nc2ccc(C(=O)NCCCCCCC(=O)NO)cc2)ncc1Cl`, the negative logarithm of the IC50 (pIC50) with A549 [1] was 5.47; in the assay with SH-SY5Y [2] it was 6.47; against Histone deacetylase 2 it was 7.82; in assay [7] it was 8.37; in [8] it was 8.62; in assay [9], 9.00. The pIC50 in the assay on HepG2 [10] is 6.04; in “cells”, 6.66; in the assay on NCI-H2228 [11] it was 6.74; in the assay with MDA-MB-231 [12] it was 6.41; in [25], 8.17; against Histone deacetylase 1 [26], 7.92. Also, the inhibition at Histone deacetylase 1 [3] came to 49%; against Histone deacetylase 1 [4], 100%; in [5], 84.5%; in assay [6], 103%. Also, the “Ratio IC50” value (with HepG2 [13]; in the assay on HepG2 [14]; in the assay on A549 [15]; in the assay on A549 [16]; in assay [17]; in assay [18]) was 3 throughout. Further, the “Ratio IC50” value in the assay on SH-SY5Y [19], in the assay with SH-SY5Y [20], in the assay on NCI-H2228 [21], with NCI-H2228 [22], in the assay on MDA-MB-231 [23] and in the assay with MDA-MB-231 [24] was 3 each time.

With `Cc1cc(Nc2ncc(Cl)c(Nc3ccccc3S(=O)(=O)C(C)C)n2)c(OC(C)C)cc1C1CCNCC1` [CERITINIB], the pIC50 in the assay on SH-SY5Y [2] is 6.43; with HepG2 [10], 5.39; in “cells”, 5.58; in the assay on NCI-H2228 [11], 5.70; in the assay on MDA-MB-231 [12], 5.74. For the same compound, the viability at 1 µM came out at 90.2% in the assay with MDA-MB-231 [27] and 81.9% in the assay on SH-SY5Y [31]. The Activity with MDA-MB-231 [28] turned out to be 1.17%; in the assay with MDA-MB-231 [29], 7.07%; in the assay on MDA-MB-231 [30], 1.55%; in the assay on SH-SY5Y [32], 2.07%; in the assay on SH-SY5Y [33], 20.4%; in the assay with SH-SY5Y [34] it was 11.77%.

Consider `Cc1ccccc1Nc1nc(Nc2ccc(NC(=O)CCCCCCC(=O)NO)cc2)ncc1Cl`, for which the inhibition against Histone deacetylase 1 [3] is 91%; on Histone deacetylase 1 [4], 99%; in assay [5] it was 1.2%; in assay [6], 27.8%.

For the origin of these results see ChEMBL document CHEMBL4828709, “Discovery of 2,4-pyrimidinediamine derivatives as potent dual inhibitors of ALK and HDAC” (Eur J Med Chem, 2021).
